{"source": "patent US20230371513A1", "about": "“PHOTOSTABLE COMPOSITION AND METHOD OF REDUCING OR CONTROLLING WEED POPULATION APPLYING SAID COMPOSITION” (UPL DO BRASIL INDUSTRIA E COMERCIO DE INSUMOS AGROPECUARIOS …, priority 2020, published 2023)", "origin": "cited, not measured here", "settings": "buffer", "data": [{"smiles": "Cc1nn(-c2cc(NS(C)(=O)=O)c(Cl)cc2Cl)c(=O)n1C(F)F", "note": "[sulfentrazone]", "values": [{"measurement": "half-life, direct photolysis", "result": "1 to 12", "unit": "h"}]}]}
